The values below come from US20240327354A1, “GRAM-NEGATIVE BACTERIA EFFLUX PUMP INHIBITORS” (INSTITUT NATIONAL DE LA SANTÉ ET DE LA RECHERCHE MÉDICALE, priority 2021, published 2024).

Assay [1] deals with A. baumannii LMG 1025 (ATCC 17978). Put plainly: Assay 2: growth inhibition of A. baumannii by sub-inhibitory chloramphenicol in combination with examples (resazurin reduction). It counts as cell-based, Acinetobacter baumannii. The settings on record: read-out: EC90 on A. baumannii with 10 μg/mL of chloramphenicol, 10 μg/mL chloramphenicol, 5 h or 24 h, 37° C. From the text:
(§1) Escherichia coli BW25113 (CGSC 7636) and its derivatives E. coli ΔtolC (JW5503-1, ΔtolC732::kan, CGSC 11430), E. coli ΔacrA (JW0452-3, ΔacrA748::kan, CGSC 11843) and E. coli ΔacrB (JW0451-2, ΔacrB747::kan, CGSC 8609) were obtained from E. coli Genetic Stock Center (CGSC, New Haven, Connecticut) and originated from the Keio Collection (Baba T et al, Mol Sys Biol, 2006). Klebsiella pneumoniae (LMG 2095/ATCC 13883) and K. pneumoniae (ATCC43816), Pseudomonas aeruginosa (PAO1), Acinetobacter baumannii (LMG 1025, ATCC 17978), were obtained from ATCC or BCCM/LMG Bacteria Collection. All bacteria were grown and tested in cation-adjusted Mueller-Hinton broth (CAMHB; BD Difco) at 37° C. For conservation, log phase bacteria were frozen (−80° C.) in CAMHB supplemented with 15% glycerol.
Measurement of Growth Inhibition of A. baumannii Strains by Sub Inhibitory Concentrations of Chloramphenicol in Combination with Examples 1-137
For the evaluation of the dose dependent activity of examples 1-137, their ability to boost the antibacterial activity of sub-inhibitory concentrations chloramphenicol was determined. Briefly, A. baumannii LMG 1025 (ATCC 17978) were diluted from frozen or growing stocks to an OD600 of 0.001 in CAMHB. The bacterial suspension was then used as such (no-antibiotic control to evaluate EPI activity), or spiked with chloramphenicol at a final concentration of 10 μg/mL. Bacteria were then added to microplates carrying serial dilutions of the compounds examples 1-137, and incubated for (5 h or 24 h, 37° C.). Bacterial viability was evaluated using the resazurin reduction assay, and measured by fluorescence (POLARstar Omega, BMG Labtech: Ex: 530 nm Em: 590 nm). […] were defined as the compound concentration that prevented 90% of resazurin turnover compared to the non-treated bacteria.

A further assay deals with E. coli BW25113. Put plainly: Assay 1: growth inhibition of E. coli by sub-inhibitory pyridomycin in combination with examples (resazurin reduction). The class given is cell-based, Escherichia coli. Conditions: read-out: EC50 on E. coli with 8 μg/mL of pyridomycin, 8 μg/mL pyridomycin, 5 h, 37° C.
Source text: as §1
Briefly, E. coli BW25113 were diluted from frozen or growing stocks to an OD600 of 0.0004-0.001 in CAMHB. […] E. coli BW25113 viability was evaluated using the resazurin reduction assay, and measured by fluorescence (POLARstar Omega, BMG Labtech: Ex: 530 nm Em: 590 nm). EC50 were defined as the compound concentration that prevented 50% of resazurin turnover compared to the non-treated bacteria.
Background: Resazurin is reduced to fluorescent resorufin, in cell work by metabolically active cells.

The structures appear in SMILES notation. Counter-ions that a name gives are not always drawn.

As to `FC(F)(F)c1cnc(N[C@H]2[C@@H]3CNC[C@@H]32)c(Cl)c1` [Example 16, (1R,5S)-N-[3-chloro-5-(trifluoromethyl)-2-pyridyl]-3-azabicyclo[3.1.0]hexan-6-amine;formic acid], the EC90 in assay [1] fell in the range of 100 to 500 µM.

In the case of `NCc1nc(-c2cnc(N3CCNCC3)c(Cl)c2)no1` [Example 74, [3-(5-chloro-6-piperazin-1-yl-3-pyridyl)-1,2,4-oxadiazol-5-yl]methanamine;dihydrochloride], the EC50 in the assay with E. coli BW25113 fell in the range of 5 to 100 µM.

Consider `NCCc1nc(-c2cnc(N3CCNCC3)c(Cl)c2)no1` [Example 75, 2-[3-(5-chloro-6-piperazin-1-yl-3-pyridyl)-1,2,4-oxadiazol-5-yl]ethanamine;dihydrochloride], for which, in the assay on E. coli BW25113, the EC50 was below 5 µM.

As for `NCCCc1nc(-c2cnc(N3CCNCC3)c(Cl)c2)no1` [Example 76, 3-[3-(5-chloro-6-piperazin-1-yl-3-pyridyl)-1,2,4-oxadiazol-5-yl]propan-1-amine; dihydrochloride], the EC50 in the assay on E. coli BW25113 lay in the range of 5 to 100 µM.

As for `NCc1cccc(OCc2cnc(N3CCNCC3)c(Cl)c2)c1` [Example 77, [3-[(5-chloro-6-piperazin-1-yl-3-pyridyl)methoxy]phenyl]methanamine;dihydrochloride], in the assay on E. coli BW25113, the EC50 fell in the range of 5 to 100 µM.

Take `NCc1cccc(COc2cnc(N3CCNCC3)c(Cl)c2)c1` [Example 78, [3-[(5-chloro-6-piperazin-1-yl-3-pyridyl)oxymethyl]phenyl]methanamine;dihydrochloride]: the EC50 with E. coli BW25113 was in the range of 5 to 100 µM.

Turning to `Clc1cc(I)cnc1N1CCNCC1` [Example 79, 1-(3-chloro-5-iodo-2-pyridyl)piperazine], the EC50 in the assay on E. coli BW25113 lay within 5 to 100 µM.

As for `CC(=O)Nc1cnc(N2CCN(C)CC2)c(Cl)c1` [Example 80, N-[5-chloro-6-(4-methylpiperazin-1-yl)-3-pyridyl]acetamide], the EC50 in the assay on E. coli BW25113 was 5 to 100 µM.

As to `CN1CCN(c2nc3ccccc3cc2Cl)CC1` [Example 81, 3-chloro-2-(4-methylpiperazin-1-yl)quinoline], in the assay with E. coli BW25113, the EC50 fell in the range of 5 to 100 µM.

In the case of `O=C(Oc1ccccc1)c1cnc(N2CCNCC2)c(Cl)c1` [Example 84, Phenyl 5-chloro-6-piperazin-1-yl-pyridine-3-carboxylate; 2,2,2-trifluoroacetic acid], the EC50 with E. coli BW25113 lay within 5 to 100 µM.

With `NCC#Cc1cnc(N2CCNCC2)c(Cl)c1` [Example 85, 3-(5-chloro-6-piperazin-1-yl-3-pyridyl)prop-2-yn-1-amine; 2,2,2-trifluoroacetic acid], the EC50 in the assay on E. coli BW25113 was 5 to 100 µM.

For the compound `NCCC#Cc1cnc(N2CCNCC2)c(Cl)c1` [Example 86, 4-(5-chloro-6-piperazin-1-yl-3-pyridyl)but-3-yn-1-amine; 2,2,2-trifluoroacetic acid], in the assay on E. coli BW25113, the EC50 lay in the range of 5 to 100 µM.

As to `NCCCC#Cc1cnc(N2CCNCC2)c(Cl)c1` [Example 87, 5-(5-chloro-6-piperazin-1-yl-3-pyridyl)pent-4-yn-1-amine; 2,2,2-trifluoroacetic acid], in the assay on E. coli BW25113, the EC50 is below 5 µM.

For `C#Cc1cnc(N2CCNCC2)c(Cl)c1` [Example 88, 1-(3-chloro-5-ethynyl-2-pyridyl)piperazine], the EC50 in the assay on E. coli BW25113 was 5 to 100 µM.

Take `Clc1cc(C#Cc2ccccc2)cnc1N1CCNCC1` [Example 89, 1-[3-chloro-5-(2-phenylethynyl)-2-pyridyl]piperazine; 2,2,2-trifluoroacetic acid]: the EC50 with E. coli BW25113 lay in the range of 5 to 100 µM.

With `NCCc1ccc(C#Cc2cnc(N3CCNCC3)c(Cl)c2)cc1` [Example 92, 2-[4-[2-(5-chloro-6-piperazin-1-yl-3-pyridyl)ethynyl]phenyl]ethanamine; 2,2,2-trifluoroacetic acid], the EC50 in the assay on E. coli BW25113 is below 5 µM.

For `NCCCn1cc(-c2ccc3nc(N4CCNCC4)c(Cl)cc3c2)nn1` [Example 93, 3-[4-(3-chloro-2-piperazin-1-yl-6-quinolyl)triazol-1-yl]propan-1-amine;dihydrochloride], the EC50 in the assay on E. coli BW25113 was below 5 µM.

For `NCCn1cc(-c2ccc3nc(N4CCNCC4)c(Cl)cc3c2)nn1` [Example 94, 2-[4-(3-chloro-2-piperazin-1-yl-6-quinolyl)triazol-1-yl]ethanamine;dihydrochloride], the EC50 with E. coli BW25113 was below 5 µM.

As to `CN(C)CCn1cc(-c2ccc3nc(N4CCNCC4)c(Cl)cc3c2)nn1` [Example 95, 2-[4-(3-chloro-2-piperazin-1-yl-6-quinolyl)triazol-1-yl]-N,N-dimethyl-ethanamine;dihydrochloride], the EC50 in the assay on E. coli BW25113 was below 5 µM.

For the compound `O=C1NCCN1c1ccc2nc(N3CCNCC3)c(Cl)cc2c1` [Example 96, 1-(3-chloro-2-piperazin-1-yl-6-quinolyl)imidazolidin-2-one;hydrochloride], the EC50 with E. coli BW25113 is below 5 µM.

Take `O=C1CCCN1c1ccc2nc(N3CCNCC3)c(Cl)cc2c1` [Example 97, 1-(3-chloro-2-piperazin-1-yl-6-quinolyl)pyrrolidin-2-one;hydrochloride]: in the assay on E. coli BW25113, the EC50 was below 5 µM.

Regarding `NCC1CCN(c2ccc3nc(N4CCNCC4)c(Cl)cc3c2)CC1` [Example 99, [1-(3-chloro-2-piperazin-1-yl-6-quinolyl)-4-piperidyl]methanamine;dihydrochloride], in the assay with E. coli BW25113, the EC50 is below 5 µM.

Regarding `NCC1CCN(c2ccc3nc(N4CCNCC4)c(Cl)cc3c2)C1` (centres unmarked) [Example 100, [1-(3-chloro-2-piperazin-1-yl-6-quinolyl)pyrrolidin-3-yl]methanamine;dihydrochloride], the EC50 in the assay with E. coli BW25113 is below 5 µM.

Take `N[C@@H]1CCN(c2ccc3nc(N4CCNCC4)c(Cl)cc3c2)C1` [Example 101, (3R)-1-(3-chloro-2-piperazin-1-yl-6-quinolyl)pyrrolidin-3-amine;dihydrochloride]: the EC50 in the assay on E. coli BW25113 is below 5 µM.

On to `N[C@H]1CCN(c2ccc3nc(N4CCNCC4)c(Cl)cc3c2)C1` [Example 102, (3S)-1-(3-chloro-2-piperazin-1-yl-6-quinolyl)pyrrolidin-3-amine;dihydrochloride], for which, in the assay on E. coli BW25113, the EC50 was below 5 µM.

Take `Clc1cc2cc(N[C@@H]3CCNC3)ccc2nc1N1CCNCC1` [Example 103, 3-chloro-2-piperazin-1-yl-N-[(3R)-pyrrolidin-3-yl]quinolin-6-amine;dihydrochloride]: the EC50 in the assay with E. coli BW25113 is 5 to 100 µM.

Regarding `OCc1cccc(-c2ccc3nc(N4CCNCC4)c(Cl)cc3c2)c1` [Example 108, [3-(3-chloro-2-piperazin-1-yl-6-quinolyl)phenyl]methanol;hydrochloride], the EC50 in the assay with E. coli BW25113 was below 5 µM.

Regarding `C[C@@H](N)c1cccc(-c2ccc3nc(N4CCNCC4)c(Cl)cc3c2)c1` [Example 113, (1R)-1-[3-(3-chloro-2-piperazin-1-yl-6-quinolyl)phenyl]ethanamine;dihydrochloride], the EC50 in the assay on E. coli BW25113 is below 5 µM.

`CC(C)(N)c1cccc(-c2ccc3nc(N4CCNCC4)c(Cl)cc3c2)c1` [Example 114, 2-[3-(3-chloro-2-piperazin-1-yl-6-quinolyl)phenyl]propan-2-amine;dihydrochloride]: the EC50 in the assay on E. coli BW25113 was below 5 µM.

Consider `NCCc1cccc(-c2ccc3nc(N4CCNCC4)c(Cl)cc3c2)c1` [Example 115, 2-[3-(3-chloro-2-piperazin-1-yl-6-quinolyl)phenyl]ethanamine;dihydrochloride], for which, in the assay with E. coli BW25113, the EC50 is below 5 µM.

In the case of `NCc1ccc(C(F)(F)F)c(-c2ccc3nc(N4CCNCC4)c(Cl)cc3c2)c1` [Example 122, [3-(3-chloro-2-piperazin-1-yl-6-quinolyl)-4-(trifluoromethyl)phenyl]methanamine;dihydrochloride], in the assay with E. coli BW25113, the EC50 is below 5 µM.

With `NCc1ccnc(-c2ccc3nc(N4CCNCC4)c(Cl)cc3c2)c1` [Example 131, [2-(3-chloro-2-piperazin-1-yl-6-quinolyl)-4-pyridyl]methanamine;dihydrochloride], the EC50 in the assay with E. coli BW25113 was below 5 µM.

With `NCc1cncc(-c2ccc3nc(N4CCNCC4)c(Cl)cc3c2)c1` [Example 132, [5-(3-chloro-2-piperazin-1-yl-6-quinolyl)-3-pyridyl]methanamine;dihydrochloride], the EC50 in the assay with E. coli BW25113 is below 5 µM.

Regarding `NCc1cccc(-c2ccc3nc(N4CCNCC4)c(Cl)cc3c2)c1Cl` [Example 136, [2-chloro-3-(3-chloro-2-piperazin-1-yl-6-quinolyl)phenyl]methanamine;dihydrochloride], the EC50 in the assay on E. coli BW25113 is below 5 µM.

On to `NCc1cc(Cl)cc(-c2ccc3nc(N4CCNCC4)c(Cl)cc3c2)c1` [Example 137, [3-chloro-5-(3-chloro-2-piperazin-1-yl-6-quinolyl)phenyl]methanamine;dihydrochloride], for which the EC50 with E. coli BW25113 is below 5 µM.
